Laboratory results taken from US20260200923A1, “HETEROCYCLIC COMPOUNDS TARGETING THE NUDT5 PROTEIN” (Oxford University Innovation Limited, priority 2022, published 2026).
Entries after “also recorded” stand apart in the source; their conditions may differ.

Columns and labels:
[1] = molecular target: T1, NUDT14 (Homo sapiens, UniProt O95848); test: AMP-Glo catalytic assay, NUDT14; format: biochemical; settings: 2 nM NUDT14, ADPr substrate, 1 hour, mean±SD; read-out: NUDT14 IC50
T1 sequence (O95848 1-222): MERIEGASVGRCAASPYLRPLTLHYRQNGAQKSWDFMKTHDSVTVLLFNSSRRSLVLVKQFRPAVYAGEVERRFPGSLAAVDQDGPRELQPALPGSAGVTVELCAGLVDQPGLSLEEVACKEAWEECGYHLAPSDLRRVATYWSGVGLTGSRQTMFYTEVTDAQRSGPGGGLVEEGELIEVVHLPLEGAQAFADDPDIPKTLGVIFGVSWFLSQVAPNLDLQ
Description: To identify alternative X groups, a screening exercise was performed. […] Inhibition activities of the compounds were determined using AMP-Glo system (Promega). The compounds were diluted from 50 μM to 0 μM in a final reaction containing 20 mM Hepes, 100 mM NaCl, 0.5 mM TCEP, 1 mM MgCl2 and 0.1% BSA, pH 7.4. The reactions were performed in 1536 well plate in […] reaction volume with 2 nM of NUDT5 and NUDT14, and […] of ADPr as the substrate. The final DMSO concentration was 0.5% for all reactions. NUDT5 reactions were incubated for 20 minutes while NUDT14 reactions were carried out for 1 hour at room temperature. […] The reactions were further incubated with the 4 μl of Detection solution for 1 hour at room temperature. Luminescence signals were then measured in PHERAstar FSX plate reader. Experiments were done in triplicate sets and data were analysed by GraphPad Prism 9. Data are represented as the mean±SD of three biological experiments: […]

[2] = tested on: MTHFD1^KO cells; test: growth of MTHFD1^KO cells in dialyzed serum media with compound supplementation; format: cell-based
Description: (§1) MTHFD1^KO cells in dialyzed FBS media were treated with a single nucleotide or folic acid metabolite for 72 hours. Cells were then stained with Hoechst, imaged, and counted using an Operetta (Perkin Elmer). For the AMPK activator studies, cells were stained with Hoechst, imaged, and counted using an Opera (Perkin Elmer). Similarly, MTHFD1^K56R cells in dialyzed FBS media were treated with adenosine for 72 hours. Cells were then stained with Hoechst, imaged, and counted using an Operetta (Perkin Elmer).
MTHFD1^KO cells (F5 clone) in dialyzed FBS media were treated with the CeMM compound library (89,228 chemically diverse compounds). Both cell number, using Hoechst staining, and CellTiter-Glo (Promega), an indicator of metabolically active cells, was both used as a readout, depending on the stage of the screen.
Briefly, the screening was divided into the three parts (i) primary screening, (ii) follow-up and (iii) validation. During the primary screen, MTHFD1^KO cells were treated with 10 μM of every compound and CellTiter-Glo (Promega) was used to assess their ability to increase cell growth after 48 hours. From this primary screening, 17 compounds were selected as hits and rescreened in the follow-up part, in which the MTHFD1^KO cells were treated in a six-point dose response for 72 hours to discard any false positives. Finally, in the validation part, MTHFD1^KO cells were treated with 10 compounds in an eight-point dose response curve and the cell numbers were counted by staining with Hoechst, imaging and counting nuclei using the Opera Phenix (Perkin Elmer) and Harmony software (Perkin Elmer).

[3] = tested on: HAP-1 cells; test: 6-thioguanine assay (CellTiter-Glo viability); format: cell-based; settings: 0.2 μg/ml 6-thioguanine, 72 h; HAP1 (and NB4, FIG. 11)
Description: NB-4 and HAP1 cells (1000 cells/well in 40 uL) were seeded onto a 384-well plate containing compounds. DMSO or 0.2 μg/ml 6-thioguanine (A4882, Sigma-Aldrich) was added into respective wells. After 72 h incubation cell viability was measured by using CellTiter-Glo 2.0 Assay (G9242, Promega). Compounds in the 384-well plates were prepared by using Echo Acoustic Dispenser.

[4] = tested on: MTHFD1^K56R cells; test: growth of MTHFD1^K56R cells in adenosine-containing media; format: cell-based; settings: adenosine-containing media, 72 h
Description: HAP1 (KBM7-derived, Horizon Discovery, C859), and HAP1 MTHFD1^KO, MTHFD1^K56R, and MTHFD1^K386E cell lines were cultured in Iscove's Modified Dulbecco's Medium (IMDM, Sigma), supplemented with 10% Fetal Bovine Serum (FBS, Sigma) and 1% Penicillin/Streptomycin (P/S, Sigma).
as §1

[5] = molecular target: T2, NUDT5 (Homo sapiens, UniProt Q9UKK9); test: CRBN knock-out experiment, NUDT5 degradation; format: cell-based; parameters: endogenous in cells; host or cells: HEK293 (also CRBN knock-out HEK293 for A13); settings: CRBN knock-out HEK293 cells, 20 h
[6] = molecular target: T2, NUDT5; test: NUDT5 degradation by Western blot in HEK293 cells; format: cell-based; parameters: endogenous in cells; host or cells: HEK293 (also CRBN knock-out HEK293 for A13)
Description: For Western blots, proteins were separated on polyacrylamide gels with SDS running buffer (50 mM Tris, 380 mM Glycine, 7 mM SDS) and transferred to PVDF membranes. All membranes were then blocked with blocking buffer (5% w/v milk powder, BioRad) in TBST (50 mM Tris (tris(hydroxymethylaminomethane), 150 mM NaCl, 0.05% (v/v) Tween 20, adjusted to pH 7.6) Proteins were probed with antibodies against phospho-AMPK (50081S, 1:2000, Cell Signaling Technologies), AMPK (5832S, 1:2000, Cell Signaling Technologies), PML (ab179466, 1:1000, abeam), PARP8 (NBP213733, 1:1000, Novus Biologicals), ATF2/7 (82870, 1:1000, Cell Signaling Technologies), alpha-Tubulin (ab7291, 1:1000, Abeam), phospho-UBTF (ab182583, 1:1000, abeam), UBTF (HPA006385, 1:1000, Sigma), RBM38 (AV40862, 1:1000, Sigma), or NUDT5 (ab129172, 1:1000, abeam), detected by HRP (horse-radish peroxidase) conjugated donkey anti-rabbit IgG antibody (Pierce) or donkey anti-mouse antibody IgG antibody (Pierce) and visualized with Clarity ECL Western Blotting substrate (BioRad), according to provided protocol.

[7] = molecular target: T3, NUDT5-CRBN interaction (Homo sapiens, UniProt Q96SW2+Q9UKK9); test: NanoBRET ternary complex formation (protein-protein interaction) assay; format: cell-based; settings: HEK293 cells, 4 h
T3 construct: expressed in transfected cells; host or cells: HEK293
Description: For NanoBRET protein-protein interaction assay, NanoBRET Nano-Glo Detection System (N1662, Promega) was used according to the manufacturer's instruction. In brief, 220,000 HEK293 cells/ml was seeded in a 6-well plate. After 6 h, N-terminal nanoLuc NUDT5 and Halo-tag CRBN were then transfected into the cells using Fugene HD transfection reagent (E2312, Promega). The transfected HEK293 (220,000 cells/ml) were then replated onto a 384-well plate containing compounds. After 4 h incubation, NanoLuc substrate was added into each well and the signals were measured by PHERAstar Microplate Reader.
Compounds were dispensed in the 384-well plates by using Echo Acoustic Dispenser.

Row | SMILES | rescue of growth in dialyzed serum [2] | NUDT5 degradation at 100 nM, 20 h (%) [6] [%] | other results
1 | Nc1ncnc2[nH]nc(-c3ccc(Oc4ccccc4)cc3)c12 [Compound 3] |  |  | IC50 [1]: 548 ± 37 nM
2 | CN1CCC(n2nc(-c3ccc(NC(=O)CCl)cc3)c3c(N)ncnc32)CC1 [Compound 8] |  |  | IC50 [1]: 377 ± 35 nM
3 | C[S+](CC[C@H](N)C(=O)[O-])C[C@H]1O[C@@H](n2cnc3c(N)ncnc32)[C@H](O)[C@@H]1O (stereo partly shown) [SAM] | able to rescue the growth |  | 
4 | O=c1[nH]cnc2nc[nH]c12 [hypoxanthine] | able to rescue the growth |  | 
5 | Cn1c(=O)c2c(nc(N3CCNCC3)n2Cc2nnc(-c3ccc(Cl)c(Cl)c3)o2)n(C)c1=O [TH5427, reference compound] |  |  | rescue of 6-TG toxicity [3]: did not show a rescue; also recorded: neither the negative control nor TH5427 gave any significant effects; effect on adenosine toxicity / viability [4]: did not affect the viability
6 | Cn1nc(-c2ccc(Oc3ccccc3)cc2)c2c(N)ncnc21 [Compound 2] |  |  | IC50 [1]: 604 ± 116 nM
7 | Cc1cc2nc3c(=O)[nH]c(=O)nc-3n(C[C@H](O)[C@H](O)[C@H](O)COP(=O)(O)OP(=O)(O)OC[C@H]3O[C@@H](n4cnc5c(N)ncnc54)[C@H](O)[C@@H]3O)c2cc1C [FAD] | able to rescue the growth |  | 
8 | Cn1c(=O)c2c(nc(N3CCN(C(=O)CCOCCOCCOCCNc4cccc5c4C(=O)N(C4CCC(=O)NC4=O)C5=O)CC3)n2Cc2nnc(-c3ccc(Cl)c(Cl)c3)o2)n(C)c1=O (stereo not shown) [Compound 127, 7-((5-(3,4-dichlorophenyl)-1,3,4-oxadiazol-2-yl)methyl)-8-(4-(3-(2-(2-(2-((2-(2,6-dioxopiperidin-3-yl)-1,3-dioxoisoindolin-4-yl)amino)ethoxy)ethoxy)ethoxy)propanoyl)piperazin-1-yl)-1,3-dimethyl-3,7-dihydro-1H-purine-2,6-dione] |  | 76 | dependence of degradation on E3 ligase [5]: E3-ligase-dependant
9 | Cn1c(=O)c2c(nc(N3CCN(CC4CCN(c5ccc6c(c5)C(=O)N(C5CCC(=O)NC5=O)C6=O)CC4)CC3)n2Cc2nnc(-c3ccc(Cl)c(Cl)c3)o2)n(C)c1=O (stereo not shown) [Compound 070, 7-((5-(3,4-dichlorophenyl)-1,3,4-oxadiazol-2-yl)methyl)-8-(4-((1-(2-(2,6-dioxopiperidin-3-yl)-1,3-dioxoisoindolin-5-yl)piperidin-4-yl)methyl)piperazin-1-yl)-1,3-dimethyl-3,7-dihydro-1H-purine-2,6-dione] |  | 39 | ternary complex formation between NUDT5 and CRBN [7]: induced the ternary complex; NUDT5 degradation ([6]; Western blot, FIG. 12A): reasonable NUDT5 degrader
10 | Nc1ncnc2c1ncn2[C@@H]1O[C@H](COP(=O)(O)O)[C@@H](O)[C@H]1O [AMP] | able to rescue the growth |  | 
11 | Cn1c(=O)c2c(nc(N3CCN(CCC4CCN(c5ccc6c(c5)C(=O)N(C5CCC(=O)NC5=O)C6=O)CC4)CC3)n2Cc2nnc(-c3ccc(Cl)c(Cl)c3)o2)n(C)c1=O (stereo not shown) [Compound 102, 7-((5-(3,4-dichlorophenyl)-1,3,4-oxadiazol-2-yl)methyl)-8-(4-(2-(1-(2-(2,6-dioxopiperidin-3-yl)-1,3-dioxoisoindolin-5-yl)piperidin-4-yl)ethyl)piperazin-1-yl)-1,3-dimethyl-3,7-dihydro-1H-purine-2,6-dione] |  | 46 | 
12 | C=CC(=O)N1CCC=C(c2nn(C3CCN(C)CC3)c3ncnc(N)c23)C1 [Compound 5] |  |  | IC50 [1]: 4270 ± 133 nM
13 | Cn1c(=O)c2c(nc(N3CCN(C(=O)CCOCCOCCOCCOCCNc4cccc5c4C(=O)N(C4CCC(=O)NC4=O)C5=O)CC3)n2Cc2nnc(-c3ccc(Cl)c(Cl)c3)o2)n(C)c1=O (stereo not shown) [Compound 130, 7-((5-(3,4-dichlorophenyl)-1,3,4-oxadiazol-2-yl)methyl)-8-(4-(1-((2-(2,6-dioxopiperidin-3-yl)-1,3-dioxoisoindolin-4-yl)amino)-3,6,9,12-tetraoxapentadecan-15-oyl)piperazin-1-yl)-1,3-dimethyl-3,7-dihydro-1H-purine-2,6-dione] |  | 81 | dependence of degradation on E3 ligase [5]: E3-ligase-dependant
14 | NC(=O)C1=CN([C@@H]2O[C@H](COP(=O)(O)OP(=O)(O)OC[C@H]3O[C@@H](n4cnc5c(N)ncnc54)[C@H](O)[C@@H]3O)[C@@H](O)[C@H]2O)C=CC1 [NADH] | able to rescue the growth |  | 
15 | NC(=O)c1ccc[n+]([C@@H]2O[C@H](COP(=O)([O-])OP(=O)(O)OC[C@H]3O[C@@H](n4cnc5c(N)ncnc54)[C@H](O)[C@@H]3O)[C@@H](O)[C@H]2O)c1 [NAD] | able to rescue the growth |  | 
16 | Cn1c(=O)c2c(nc(N3CCN(C(=O)CCOCCOCCNc4cccc5c4C(=O)N(C4CCC(=O)NC4=O)C5=O)CC3)n2Cc2nnc(-c3ccc(Cl)c(Cl)c3)o2)n(C)c1=O (stereo not shown) [Compound 068, 7-((5-(3,4-dichlorophenyl)-1,3,4-oxadiazol-2-yl)methyl)-8-(4-(3-(2-(2-((2-(2,6-dioxopiperidin-3-yl)-1,3-dioxoisoindolin-4-yl)amino)ethoxy)ethoxy)propanoyl)piperazin-1-yl)-1,3-dimethyl-3,7-dihydro-1H-purine-2,6-dione] |  | 52 | Dmax ([6]; HEK293, NUDT5 degradation): 50%
